Reference: PubChem BioAssay (NCI)
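Values below derive from 48-hour exposures of cells grown in 96-well plates, with endpoints linearly interpolated between the two concentrations bracketing the appropriate inhibition level. TGI denotes the concentration required for complete inhibition of growth.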

How the values were obtained:
Assay in all cases: NCI tumour cell line growth inhibition, 48 h
786-0 renal = test system: 786-0 renal
A498 renal = test system: A498 renal
A549 NSCLC = test system: A549 NSCLC
ACHN renal = test system: ACHN renal
CAKI-1 renal = test system: CAKI-1 renal
CCRF-CEM leukemia = test system: CCRF-CEM leukemia
DLD-1 colon = test system: DLD-1 colon
DMS 114 small cell lung = test system: DMS 114 small cell lung
DMS 273 small cell lung = test system: DMS 273 small cell lung
EKVX NSCLC = test system: EKVX NSCLC
HCC-2998 colon = test system: HCC-2998 colon
HCT-116 colon = test system: HCT-116 colon
HCT-15 colon = test system: HCT-15 colon
HL-60(TB) leukemia = test system: HL-60(TB) leukemia
HOP-18 NSCLC = test system: HOP-18 NSCLC
HOP-62 NSCLC = test system: HOP-62 NSCLC
HOP-92 NSCLC = test system: HOP-92 NSCLC
HT29 colon = test system: HT29 colon
IGROV1 ovarian = test system: IGROV1 ovarian
K-562 leukemia = test system: K-562 leukemia
KM12 colon = test system: KM12 colon
KM20L2 colon = test system: KM20L2 colon
LOX IMVI melanoma = test system: LOX IMVI melanoma
LXFL 529 NSCLC = test system: LXFL 529 NSCLC
M14 melanoma = test system: M14 melanoma
M19-MEL melanoma = test system: M19-MEL melanoma
MALME-3M melanoma = test system: MALME-3M melanoma
MOLT-4 leukemia = test system: MOLT-4 leukemia
NCI-H226 lung = test system: NCI-H226 lung
NCI-H23 lung = test system: NCI-H23 lung
NCI-H460 lung = test system: NCI-H460 lung
OVCAR-3 ovarian = test system: OVCAR-3 ovarian
OVCAR-4 ovarian = test system: OVCAR-4 ovarian
OVCAR-5 ovarian = test system: OVCAR-5 ovarian
OVCAR-8 ovarian = test system: OVCAR-8 ovarian
RPMI-8226 leukemia = test system: RPMI-8226 leukemia
RXF 393 renal = test system: RXF 393 renal
SF-268 CNS = test system: SF-268 CNS
SF-295 CNS = test system: SF-295 CNS
SF-539 CNS = test system: SF-539 CNS
SK-MEL-2 melanoma = test system: SK-MEL-2 melanoma
SK-MEL-28 melanoma = test system: SK-MEL-28 melanoma
SK-MEL-5 melanoma = test system: SK-MEL-5 melanoma
SN12C renal = test system: SN12C renal
SNB-19 CNS = test system: SNB-19 CNS
SNB-75 CNS = test system: SNB-75 CNS
SNB-78 CNS = test system: SNB-78 CNS
SR leukemia = test system: SR leukemia
SW-620 colon = test system: SW-620 colon
TK-10 renal = test system: TK-10 renal
UACC-257 melanoma = test system: UACC-257 melanoma
UACC-62 melanoma = test system: UACC-62 melanoma
UO-31 renal = test system: UO-31 renal
XF 498 CNS = test system: XF 498 CNS
COLO 205 colon = test system: COLO 205 colon
NCI-H522 lung = test system: NCI-H522 lung
RXF-631 renal = test system: RXF-631 renal
SK-OV-3 ovarian = test system: SK-OV-3 ovarian

## O=c1c(Cl)c(Cl)cnn1CCc1ccncc1
786-0 renal
  TGI: 59.6 µM
A498 renal
  TGI: 44.6 µM
A549 NSCLC
  TGI: > 100 µM
ACHN renal
  TGI: 33.4 µM
CAKI-1 renal
  TGI: 3.99 µM
CCRF-CEM leukemia
  TGI: 88.8 µM
DLD-1 colon
  TGI: 30.4 µM
DMS 114 small cell lung
  TGI: 29 µM
DMS 273 small cell lung
  TGI: 33.6 µM
EKVX NSCLC
  TGI: 36.2 µM
HCC-2998 colon
  TGI: 27.9 µM
HCT-116 colon
  TGI: 30.7 µM
HCT-15 colon
  TGI: 31.3 µM
HL-60(TB) leukemia
  TGI: 87.1 µM
HOP-18 NSCLC
  TGI: 34.2 µM
HOP-62 NSCLC
  TGI: 33.9 µM
HOP-92 NSCLC
  TGI: 38.5 µM
HT29 colon
  TGI: 31.6 µM
IGROV1 ovarian
  TGI: 33.8 µM
K-562 leukemia
  TGI: > 100 µM
KM12 colon
  TGI: 28.1 µM
KM20L2 colon
  TGI: 36.2 µM
LOX IMVI melanoma
  TGI: 33.7 µM
LXFL 529 NSCLC
  TGI: 29.8 µM
M14 melanoma
  TGI: 30.7 µM
M19-MEL melanoma
  TGI: 30.8 µM
MALME-3M melanoma
  TGI: 39.6 µM
MOLT-4 leukemia
  TGI: > 100 µM
NCI-H226 lung
  TGI: 84.1 µM
NCI-H23 lung
  TGI: 34.1 µM
NCI-H460 lung
  TGI: 37.8 µM
OVCAR-3 ovarian
  TGI: 31.4 µM
OVCAR-4 ovarian
  TGI: 33 µM
OVCAR-5 ovarian
  TGI: 33.6 µM
OVCAR-8 ovarian
  TGI: 43.1 µM
RPMI-8226 leukemia
  TGI: > 100 µM
RXF 393 renal
  TGI: 42.2 µM
SF-268 CNS
  TGI: 40.8 µM
SF-295 CNS
  TGI: 83 µM
SF-539 CNS
  TGI: 43.4 µM
SK-MEL-2 melanoma
  TGI: 39.7 µM
SK-MEL-28 melanoma
  TGI: 30.7 µM
SK-MEL-5 melanoma
  TGI: 30.4 µM
SN12C renal
  TGI: 33.6 µM
SNB-19 CNS
  TGI: 30.7 µM
SNB-75 CNS
  TGI: 33.2 µM
SNB-78 CNS
  TGI: 49.8 µM
SR leukemia
  TGI: 57.2 µM
SW-620 colon
  TGI: 41.2 µM
TK-10 renal
  TGI: > 100 µM
UACC-257 melanoma
  TGI: 34.1 µM
UACC-62 melanoma
  TGI: 39.8 µM
UO-31 renal
  TGI: 36.2 µM
XF 498 CNS
  TGI: 29.6 µM

## Cc1cc(=O)c2c([nH]1)NS(=O)(=O)NC2=O
786-0 renal
  TGI: > 100 µM
A498 renal
  TGI: > 100 µM
A549 NSCLC
  TGI: > 100 µM
CAKI-1 renal
  TGI: > 100 µM
CCRF-CEM leukemia
  TGI: > 100 µM
COLO 205 colon
  TGI: > 100 µM
DLD-1 colon
  TGI: > 100 µM
DMS 273 small cell lung
  TGI: > 100 µM
EKVX NSCLC
  TGI: > 100 µM
HCC-2998 colon
  TGI: > 100 µM
HCT-116 colon
  TGI: > 100 µM
HCT-15 colon
  TGI: > 100 µM
HL-60(TB) leukemia
  TGI: > 100 µM
HOP-62 NSCLC
  TGI: > 100 µM
HOP-92 NSCLC
  TGI: > 100 µM
HT29 colon
  TGI: > 100 µM
IGROV1 ovarian
  TGI: > 100 µM
K-562 leukemia
  TGI: > 100 µM
KM12 colon
  TGI: > 100 µM
LXFL 529 NSCLC
  TGI: > 100 µM
M14 melanoma
  TGI: > 100 µM
M19-MEL melanoma
  TGI: > 100 µM
MALME-3M melanoma
  TGI: > 100 µM
MOLT-4 leukemia
  TGI: > 100 µM
NCI-H226 lung
  TGI: > 100 µM
NCI-H23 lung
  TGI: > 100 µM
NCI-H522 lung
  TGI: > 100 µM
OVCAR-3 ovarian
  TGI: > 100 µM
OVCAR-4 ovarian
  TGI: > 100 µM
OVCAR-8 ovarian
  TGI: > 100 µM
RPMI-8226 leukemia
  TGI: > 100 µM
RXF-631 renal
  TGI: > 100 µM
SF-268 CNS
  TGI: > 100 µM
SF-295 CNS
  TGI: > 100 µM
SF-539 CNS
  TGI: > 100 µM
SK-MEL-2 melanoma
  TGI: > 100 µM
SK-MEL-28 melanoma
  TGI: > 100 µM
SK-OV-3 ovarian
  TGI: > 100 µM
SN12C renal
  TGI: > 100 µM
SNB-19 CNS
  TGI: > 100 µM
SNB-75 CNS
  TGI: > 100 µM
SNB-78 CNS
  TGI: > 100 µM
SR leukemia
  TGI: > 100 µM
SW-620 colon
  TGI: > 100 µM
TK-10 renal
  TGI: > 100 µM
UACC-257 melanoma
  TGI: > 100 µM
UACC-62 melanoma
  TGI: > 100 µM
UO-31 renal
  TGI: > 100 µM
XF 498 CNS
  TGI: > 100 µM
